Values joined by “and” are separate entries in the source; they are usually repeats but may differ in a detail not shown here. Equal entries are not always repeated. Where two headings read alike, the source gives them in different places.
Legend:
human aromatase (CYP19) = target: T1, human aromatase (CYP19) (Homo sapiens, UniProt P11511); assay: Inhibition of CYP19-catalyzed dealkylation of DBF (fluorescence, 96 well plates); type: biochemical
T1 construct: purchased Gentest P260; host or cells: baculovirus-infected insect cells (microsomes)
T1 sequence (P11511 1-503): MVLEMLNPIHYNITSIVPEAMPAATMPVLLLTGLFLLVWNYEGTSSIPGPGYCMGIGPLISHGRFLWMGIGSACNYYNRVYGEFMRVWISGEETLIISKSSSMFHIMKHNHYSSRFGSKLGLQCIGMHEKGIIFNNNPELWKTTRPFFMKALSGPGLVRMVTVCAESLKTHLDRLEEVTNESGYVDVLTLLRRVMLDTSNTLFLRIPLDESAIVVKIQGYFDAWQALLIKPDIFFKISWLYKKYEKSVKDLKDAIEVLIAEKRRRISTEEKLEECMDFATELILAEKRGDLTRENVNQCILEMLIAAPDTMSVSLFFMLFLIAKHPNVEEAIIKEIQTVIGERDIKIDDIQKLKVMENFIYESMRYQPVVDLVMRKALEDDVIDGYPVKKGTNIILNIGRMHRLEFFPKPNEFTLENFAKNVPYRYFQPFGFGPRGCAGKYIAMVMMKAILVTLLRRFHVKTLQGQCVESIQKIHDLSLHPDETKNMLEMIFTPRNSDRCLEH
Description: The inhibition of aromatase activity was measured in 96 well plates with cDNA-derived enzymes in microsomes prepared from baculovirus-infected insect cells. Dibenzylfluorescien (DBF) was used as a reporter substrate for the activity of the aromatase enzyme.
In the inhibition study, the 50 percent inhibitory concentration (IC50) for each substance was determined with the enzyme. A single concentration of DBF, below the apparent Km, and multiple test substance concentrations, separated by approximately ½ log, were tested in duplicate. Metabolism of the model substrate was assayed by the production of fluorescein metabolite, which was detected and measured using fluorescence.
The amount of solvent during the assay incubations was the same for all test substance concentrations.
As noted above, the assay was conducted in 96 well microplates. Initially, solutions of the substrate in acetonitrite at a concentration equal to the km were prepared. The inhibition of the CYP19-catalyzed dealkylation of DBF was determined, using 4-hydroxyandrostenedione, a known inhibitor of CYP19, as a positive control, and sulfaphenazone, as a negative control. The final concentration of CYP19 (Gentest catalog number P260) was 0.4 pmol/well, and the final concentration of microsomal protein was normalized to 0.25 mg/ml by the addition of the insect cell control protein. The final concentration of substrate was 0.2 μM, and the final concentration of the potassium phosphate buffer was 50 μM. The incubation time was 30 minutes.
A row of 12 wells was used in each test, and each test of a test substance/substrate combination was duplicated in a second row. In each test, wells 1 to 8 contained serial 1:3 dilutions of the inhibitors in which the maximum concentration of phytosterols was 10 μg/ml, and that of the other test substances was 250 μg/ml, assuming complete solubilization at the desired concentrations, i.e., 2 mg/ml for the phytosterols and 50 mg/ml for the other test substances. Wells 9 and 10 contained no inhibitor, and wells 11 and 12 were blanks in which stop solution was added before the enzyme to test for background fluorescence.
The plates were then warmed to 37° C., and incubation was initiated by the addition of the pre-warmed enzyme, additional insect cell control protein in an amount sufficient to provide the desired concentration, and substrate. The final cofactor concentrations were 1.3 μM NADP, 3.3 μM glucose-6-phosphate, and 0.4 U/ml glucose-6-phosphate dehydrogenase. The incubation reactions were stopped after 30 minutes by the addition of 0.075 ml of 2 N NaOH, and fluorescence was measured for each well using a FLUOstar model 403 plate scanner after a post-stop incubation period of about 4 hours. The DBF metabolite fluorescein was measured using an excitation wavelength of about 485 nm and an emission wavelength of about 538 nm.

[1] = type: physicochemical
Description: The test solutions were prepared by adding the test substances to separate aliquots of dimethyl sulfoxide (DMSO). The target concentration of each test substance was 50 mg/ml. […] Mild heat and sonication were applied to aid in obtaining solutions of the other substances at the desired concentration. The black cohosh powder and echinacea were also centrifuged prior to the use of the supernatant in the assay to sediment any particulate matter present in the solutions.
None were successful. […] Insoluble material that would not sediment when centrifuged was still present at 2 mg/ml, forming a thin, whitish layer on the surface of the solution. This particulate material was avoided when sampling the sterol solution for the assay.

C[C@]12CCC(=O)C(O)=C1CC[C@@H]1[C@@H]2CC[C@]2(C)C(=O)CC[C@@H]12 [4-Hydroxandrostendione, 4-hydroxyandrostenedione, reference compound]
IC50 (human aromatase (CYP19)): 11 nM

Nc1ccc(S(=O)(=O)Nc2ccnn2-c2ccccc2)cc1 [Sulfaphenazole, reference compound]
IC50 (human aromatase (CYP19); positive and negative control, DBF 0.2 μM, 30 min, duplicate determinations, read-out: IC50 CYP19/DBF (controls)): > 10000 nM

Astaxanthin
IC50 CYP19/DBF (human aromatase (CYP19); cDNA-derived enzyme in microsomes from baculovirus-infected insect cells, DBF 0.2 μM, 30 min, duplicate determinations, concentration assumes complete solubilization): 67 µg/mL and 66 µg/mL
Inhibition of aromatase activity (in words) (human aromatase (CYP19); summary statement on Table 2): most significant inhibition
Solubility in DMSO (in words) [1]: dissolve completely

Phytosterols
Solubility in DMSO (in words) [1]: little or no solubility in DMSO
